Several values for one entry are separate records, joined by “and”; a condition that tells them apart may be missing. Equal values may be shown once. Read-outs that look alike come from different tables or passages of the source.
Experiments:
[1] = test system: B16-F0 tumor; test: B16-F0 melanoma allograft study in nude mice; assay type: in vivo; conditions: melanoma (B16-F0) allografts in nude mice, oral dosing (50 mg/kg qd×5 or 200 mg/kg qwk×2 p.o.), relative to vehicle
Experimental: Female Crl:Nu/Nu-nuBR mice (Charles River Labs, Wilmington, Mass.) were implanted subcutaneously with 10^6 B16-F0 cells in the right flank. Animals were housed by groups in Positive Individual Ventilation cages in flat-bottom cages with no more than ten mice per cage. Environmental controls were set to maintain a temperature between 65 and 75° F. with a relative humidity of 30-70% in a 12:12 hour light:dark cycle. Animals were fed and watered ad libitum. Tumors were allowed to grow to approximately 100 mm^3 and then mice were placed into test groups (N=10). Animals were treated with vehicle, 50 mg/kg Compound 1 qd×5 p.o. or 200 mg/kg Compound 1 qwk×2 p.o. The mice were observed daily for mortality and signs of toxicity. Tumor growth was monitored externally using a caliper and volumes calculated using the formula [p/6 (width^2×length)], in which width represents the smaller tumor diameter. Studies were completed when the first animal achieved a tumor volume >1500 mm^3. Statistical analysis of variance with unadjusted pair wise comparison was performed using SAS software (Cary, N.C.).

[2] = test system: P388 murine leukemia cell line; test: 72 hour cytotoxicity, ATP-Lite cell viability; assay type: cell-based; conditions: Mus musculus, P388, Lymphoma, read-out: 72 Hour Cytotoxicity (IC50, nM ± SD)
Experimental: A P388 murine leukemia cell line was obtained from NCI, Frederick, Md. P388 cells were cultured in RPMI-1640 supplemented with 10% fetal bovine serum, 2 mM Glutamax, 1 mM sodium pyruvate, 0.1 mM non-essential amino acids and 10 mM HEPES. Cells were grown at 37° C. in a humidified 5% CO2 atmosphere. Exponentially growing P388 cells were plated at 5,000 cells/well in a 96-well flat-bottomed microtiter plate (Corning, Costar #3595, Lowell, Mass.). Twenty-four hours later, test compound was added to cells at final concentrations of 100 nM, 33.3 nM, 11.1 nM, 3.7 nM, 1.23 nM, 0.4 nM and 0.13 nM. Cellular viability was determined 72 hours later by measuring intracellular ATP with ATP-Lite assay system. The effect of compounds on cell viability was calculated by comparing the ATP levels of cells exposed to test compound with those of cells exposed to DMSO. A semi-log plot of relative ATP levels versus compound concentration was used to calculate the compound concentration required to inhibit growth by 50% (IC50). Data was analyzed by Prism software (GraphPad; San Diego, Calif.) by fitting it to a sigmoidal dose response curve.

[3] = Pharmacokinetic study in mice, plasma; assay type: in vivo
Experimental: Animals were dosed with approximately 2.5 mg/kg i.v. in the tail vein or 5, 10, 30, or 60 mg/kg p.o. in fed and 60 mg/kg p.o. in a fasted state. Blood samples and whole brains were collected from five mice at each of the […] collection time points (approximately 0.05, 0.25, 1.0, 2.0, 4.0, 8.0, 12.0 and 24.0 hours) after administration of the dose. Plasma was collected from blood samples, and whole brain sample were homoginized. Both tissues were analyzed for the concentration of Compound 1. Pharmacokinetic parameters were estimated by non-compartmental analysis using WinNonlin.

[4] = test system: P388; test: Multidrug resistant cell assay, cytotoxicity; assay type: cell-based, murine; conditions: Mus musculus, P388, 72 h, read-out: Various MDR Cell Line Cytotoxicity IC50
[5] = test system: MCF-7/MX (BCRP-1); test: Multidrug resistant cell assay, cytotoxicity; assay type: cell-based; conditions: MCF7/MX, 72 h, read-out: Various MDR Cell Line Cytotoxicity IC50
[6] = Swiss Webster, mouse, plasma, iv, 2.5 mg/kg, mice, Not Fasted
[7] = Swiss Webster, mouse, plasma, po, 60 mg/kg, mice, Fasted
[8] = Swiss Webster, mouse, plasma, po, 60 mg/kg, mice, Not Fasted

COc1ccc(N(C)c2nc(CN)nc3ccccc23)cc1 [Compound 1]
inhibition of tumor growth [1]: Statistically significant (p<0.00005) inhibition of tumor growth
IC50 [2]: 6.1 ± 2.2 nM
AUC(0-inf) [3, 6]: 467 ng·h/mL
Cmax [3, 6]: 513 ng/mL and 1.7 µM
Tmax [3, 6]: 0.05 h
half-life ([3]; Swiss Webster, mouse, plasma, iv, 2.5 mg/kg, mice, Not Fasted, IV, 2.5 mg/kg, read-out: Plasma t½ (converted)): 6.2 h
half-life ([3]; Swiss Webster, mouse, plasma, po, 60 mg/kg, 60 mg/kg dose in mice, oral, read-out: half life (t1/2) (converted)): ~10 h
bioavailability ([3]; Swiss Webster, mouse, plasma, po, 60 mg/kg, 60 mg/kg dose in mice, read-out: oral bioavailability): ~100%
AUC(0-inf) [3, 7]: 12900 ng·h/mL
Cmax [3, 7]: 1090 ng/mL and 3.7 µM
Tmax [3, 7]: 1 h
bioavailability ([3]; Swiss Webster, mouse, plasma, po, 60 mg/kg, mice, Fasted, PO, 60 mg/kg, read-out: % F): 115%
half-life ([3]; Swiss Webster, mouse, plasma, po, 60 mg/kg, mice, Fasted, PO, 60 mg/kg, read-out: Plasma t½ (converted)): 18.3 h
AUC(0-inf) [3, 8]: 10700 ng·h/mL
Cmax [3, 8]: 1120 ng/mL and 3.8 µM
Tmax [3, 8]: 0.25 h
bioavailability ([3]; Swiss Webster, mouse, plasma, po, 60 mg/kg, mice, Not Fasted, PO, 60 mg/kg, read-out: % F): 96%
half-life ([3]; Swiss Webster, mouse, plasma, po, 60 mg/kg, mice, Not Fasted, PO, 60 mg/kg, read-out: Plasma t½ (converted)): 10.8 h
clearance ([3]; Swiss Webster, mouse, plasma, mice, Not Fasted, IV, 2.5 mg/kg, read-out: Plasma CL (converted)): 89.3 mL/min/kg
bioavailability after oral dosing ([3]; mice): almost completely bioavailable
oral dose proportionality to plasma Cmax ([3]; mice dosed orally up to at least 60 mg/kg): Dose proportional increases in Cmax
differences in pharmacokinetics between fed and fasted animals ([3]; mice, 60 mg/kg p.o.): No significant differences in pharmacokinetics
Plasma CL ([3]; mice, Fasted, PO, 60 mg/kg): 77.8 mL/min/kg
Plasma V ([3]; mice, Fasted, PO, 60 mg/kg): 123.424 L/kg
Plasma V ([3]; mice, Not Fasted, IV, 2.5 mg/kg): 47.759 L/kg
Plasma CL ([3]; mice, Not Fasted, PO, 60 mg/kg): 93.05 mL/min/kg
Plasma V ([3]; mice, Not Fasted, PO, 60 mg/kg): 86.914 L/kg
IC50 [4]: 18 nM
IC50 [5]: 9 nM

From patent publication US20110224240A1 (Myrexis, Inc., priority 2010, published 2011)
